Reference: patent publication US20180055812A1, “METHOD AND COMPOSITIONS FOR TREATMENT OF CANCER” (priority 2008, published 2018)
Where two headings read alike, the source gives them in different places.

Legend:
[1] = system: H460 cells; assay type: cell-based
[2] = system: A549 cells; assay type: cell-based
[3] = H460 cells, MTT, 5 days incubation
[4] = A549 cells, MTT, 5 days incubation

Row | SMILES | IC50 [1] [µM] | IC75 [1] [µM] | IC90 [1] [µM] | IC50 [2] [µM] | IC75 [2] [µM] | IC90 [2] [µM] | IC75 [1, 3] [µM] | IC90 [1, 3] [µM] | IC50 ([1]; H460 non-small cell lung cancer cells, MTT, 5 days incubation) [µM] | IC75 [2, 4] [µM] | IC90 [2, 4] [µM]
1 | O=[As][O-].[Na+] [Sodium Meta Arsenite, sodium meta arsenite] | 10 | 20 | 30 | 13 | 19 | 17 | – | – | – | – | –
2 | N.N.[Cl][Pt][Cl] [Cisplatin, cis-diamminedichloroplatinum (II), reference compound] | – | – | – | – | – | – | 1.7 | 2.5 | 1 | 2 | 4
